Results on 37 compounds are retold here after US8785439B2, “2,5,7-substituted oxazolopyrimidine derivatives” (Sanofi, priority 2010, dated 2014).

The target of the first test is T1, human Edg-1 receptor (Homo sapiens, UniProt P21453).
T1 construct: FLAG (N); expressed in transfected cells; membrane preparation
T1 sequence (P21453 whole entry): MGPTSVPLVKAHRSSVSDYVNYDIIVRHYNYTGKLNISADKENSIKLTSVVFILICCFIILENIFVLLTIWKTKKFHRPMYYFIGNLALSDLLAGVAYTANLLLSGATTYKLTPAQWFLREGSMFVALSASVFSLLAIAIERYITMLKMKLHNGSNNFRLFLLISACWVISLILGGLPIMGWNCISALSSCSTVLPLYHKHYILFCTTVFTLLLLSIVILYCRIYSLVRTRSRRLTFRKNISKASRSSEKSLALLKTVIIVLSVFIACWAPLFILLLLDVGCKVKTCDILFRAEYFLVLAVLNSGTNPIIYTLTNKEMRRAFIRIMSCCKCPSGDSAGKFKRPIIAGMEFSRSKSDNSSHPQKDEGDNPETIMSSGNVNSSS
As to the kind of experiment: GTP-γ-S assay using human Edg-1 receptors (SPA, CHO Flp-In cell membrane preparation). It counts as biochemical. To be noted: test compound at 10 μM; high control 10 μM S1P regarded as 100% activation; background-corrected; triplicate. In a few lines: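 Membranes from CHO Flp-In cells stably overexpressing N-terminally FLAG-tagged human Edg-1 were used in a scintillation-proximity GTP-γ-S binding assay to measure receptor activation by compounds.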
As to `CCCOc1nc(Oc2ccc(=O)n(C)n2)nc2oc(-c3cc(F)ccc3Cl)nc12` [Example 114, 6-[2-(2-chloro-5-fluoro-phenyl)-7-propoxy-oxazolo[5,4-d]pyrimidin-5-yloxy]-2-methyl-2H-oyridazin-3-one], the “% Activation (Edg-1 receptor activation in percent of the activation by 10 μM S1P)” value is reported as 96%.

Staying with this test, now noted: test compound at 10 μM; high control 10 μM S1P regarded as 100% activation; background-corrected; triplicate; read-out: % Activation (Edg-1 receptor activation in percent of the activation by 10 μM S1P).
Consider `CCCOc1nc(Oc2cccc3c2OC(C)(C)C3)nc2oc(-c3cc(F)ccc3Cl)nc12` [Example 84, 2-(2-chloro-5-fluoro-phenyl)-5-(2,2-dimethyl-2,3-dihydro-benzofuran-7-yloxy)-7-propoxy-oxazolo[5,4-d]pyrimidine], for which the activation at 10 µM turned out to be 60%.
The same measure, in the same setting: in the case of `CCCOc1nc(OC2CCC(C)CC2)nc2oc(-c3cc(F)ccc3Cl)nc12` (stereo not shown) [Example 85, 2-(2-chloro-5-fluoro-phenyl)-5-(4-methyl-cyclohexyloxy)-7-propoxy-oxazolo[5,4-d]pyrimidine] it was 67%; in that of `CCCOc1nc(Oc2c(Cl)cccc2Cl)nc2oc(-c3cccc(C)c3)nc12` [Example 86, 5-(2,6-dichloro-phenoxy)-7-propoxy-2-(3-methyl-phenyl)-oxazolo[5,4-d]pyrimidine], 98%; in that of `CCCOc1nc(Oc2cccc(C#N)c2)nc2oc(-c3cccc(C)c3)nc12` [Example 87, 3-(7-propoxy-2-(3-methyl-phenyL)-oxazolo[5,4-d]pyrimidin-5-yloxy)-benzonitrile], 93%.
On the same count and under the same terms, under `CCCOc1nc(Oc2ccc(Cl)cc2C)nc2oc(-c3cccc(C)c3)nc12` [Example 88, 5-(4-chloro-2-methyl-phenoxy)-7-propoxy-2-(3-methyl-phenyl)-oxazolo[5,4-d]pyrimidine] stands 86%; under `CCCOc1nc(Oc2ccc(C)c(Cl)c2)nc2oc(-c3cccc(C)c3)nc12` [Example 89, 5-(3-chloro-4-methyl-phenoxy)-7-propoxy-2-(3-methyl-phenyl)-oxazolo[5,4-d]pyrimidine], 96%.
Take `CCCOc1nc(Oc2ccc(C)cc2Cl)nc2oc(-c3cccc(C)c3)nc12` [Example 90, 5-(2-chloro-4-methyl-phenoxy)-7-propoxy-2-(3-methyl-phenyl)-oxazolo[5,4-d]pyrimidine]: the activation at 10 µM turned out to be 67%.
Still for that read-out and setting: in the case of `CCCOc1nc(Oc2c(C)cccc2Cl)nc2oc(-c3cccc(C)c3)nc12` [Example 91, 5-(2-chloro-6-methyl-phenoxy)-7-propoxy-2-(3-methyl-phenyl)-oxazolo[5,4-d]pyrimidine] it was 105%; in that of `CCCOc1nc(Oc2ccc(C#N)cc2OC)nc2oc(-c3cccc(C)c3)nc12` [Example 92, 3-methoxy-4-(7-propoxy-2-(3-methyl-phenyl)-oxazolo[5,4-d]pyrimidin-5-yloxy)-benzonitrile], 51%.
Same read-out and setting: under `CCCOc1nc(Oc2cccc(OCC)c2)nc2oc(-c3cccc(C)c3)nc12` [Example 93, 5-(3-ethoxy-phenoxy)-7-propoxy-2-(3-methyl-phenyl)-oxazolo[5,4-d]pyrimidine] stands 60%; under `CCCOc1nc(Oc2cc(F)ccc2F)nc2oc(-c3cccc(C)c3)nc12` [Example 94, 5-(2,5-difluoro-phenoxy)-7-propoxy-2-(3-methyl-phenyl)-oxazolo[5,4-d]pyrimidine], 122%.
As for `CCCOc1nc(Oc2ccc(F)cc2F)nc2oc(-c3cccc(C)c3)nc12` [Example 95, 5-(2,4-difluoro-phenoxy)-7-propoxy-2-(3-methyl-phenyl)-oxazolo[5,4-d]pyrimidine], the activation at 10 µM worked out at 107%.
Still for that read-out and setting: in the case of `CCCOc1nc(Oc2ccccc2C(C)(C)C)nc2oc(-c3cccc(C)c3)nc12` [Example 96, 5-(2-tert-butyl-phenoxy)-7-propoxy-2-(3-methyl-phenyl)-oxazolo[5,4-d]pyrimidine] it was 67%; in that of `CCCOc1nc(Oc2c(F)cccc2F)nc2oc(-c3cccc(C)c3)nc12` [Example 97, 5-(2,6-difluoro-phenoxy)-7-propoxy-2-(3-methyl-phenyl)-oxazolo[5,4-d]pyrimidine], 124%.
Still for that read-out and setting: under `CCCOc1nc(Oc2cccc(C)c2)nc2oc(-c3cccc(C)c3)nc12` [Example 98, 7-propoxy-2-(3-methyl-phenyl)-5-(3-methyl-phenyl)oxy-oxazolo[5,4-d]pyrimidine] stands 107%; under `CCCOc1nc(Oc2ccc(F)cc2OC)nc2oc(-c3cccc(C)c3)nc12` [Example 99, 5-(4-fluoro-2-methoxy-phenoxy)-7-propoxy-2-(3-methyl-phenyl)-oxazolo[5,4-d]pyrimidine], 91%; under `CCCOc1nc(Oc2cc(F)cc(F)c2Cl)nc2oc(-c3cccc(C)c3)nc12` [Example 100, 5-(2-chloro-3,5-difluoro-phenoxy)-7-propoxy-2-(3-methyl-phenyl)-oxazolo[5,4-d]pyrimidine], 108%.
Still for that read-out and setting: in the case of `CCCOc1nc(Oc2cc(F)ccc2Cl)nc2oc(-c3cccc(C)c3)nc12` [Example 101, 5-(2-chloro-5-fluoro-phenoxy)-7-propoxy-2-(3-methyl-phenyl)-oxazolo[5,4-d]pyrimidine] it was 104%; in that of `Cc1cc(Oc2nc(OCC3CC3)c3nc(-c4cccc(F)c4)oc3n2)n(C)n1` [Example 102, 7-cyclopropylmethoxy-5-(2,5-dimethyl-2H-pyrazol-3-yloxy)-2-(3-fluoro-phenyl)-oxazolo[5,4-d]pyrimidine], 130%.
With `CCCOc1nc(Oc2ccccc2F)nc2oc(-c3cccc(C)c3)nc12` [Example 103, 5-(2-fluoro-phenoxy)-7-propoxy-2-(3-methyl-phenyl)-oxazolo[5,4-d]pyrimidine], the activation at 10 µM amounted to 109%.
The same measure, in the same setting: in the case of `Fc1ccc(Cl)c(-c2nc3c(OCC4CC4)nc(Oc4ccccc4F)nc3o2)c1` [Example 104, 2-(2-chloro-5-fluoro-phenyl)-7-cyclopropylmethoxy-5-(2-fluoro-phenoxy)-oxazolo[5,4-d]pyrimidine] it was 117%.
The same measure, in the same setting: in the case of `CCCOc1nc(Oc2ccccc2)nc2oc(-c3ccc(Cl)c(Cl)c3)nc12` [Example 105, 2-(3,4-dichloro-phenyl)-5-phenoxy-7-propoxy-oxazolo[5,4-d]pyrimidine] it was 88%; in that of `Clc1ccc(-c2nc3c(OCC4CC4)nc(Oc4cccnc4)nc3o2)cc1Cl` [Example 106, 7-cyclopropylmethoxy-2-(3,4-dichloro-phenyl)-5-(pyridin-3-yloxy)-oxazolo[5,4-d]pyrimidine], 117%.
Regarding `CCCOc1nc(Oc2ccccc2F)nc2oc(-c3cccnc3)nc12` [Example 107, 5-(2-fluoro-phenoxy)-7-propoxy-2-pyridin-3-yl-oxazolo[5,4-d]pyrimidine], the activation at 10 µM turned out to be 129%.
Take `Fc1cncc(Oc2nc(OCC3CC3)c3nc(-c4ccc(Cl)c(Cl)c4)oc3n2)c1` [Example 108, 7-cyclopropylmethoxy-2-(3,4-dichloro-phenyl)-5-(5-fluoro-pyridin-3-yloxy)-oxazolo[5,4-d]pyrimidine]: the activation at 10 µM was 98%.
Same read-out and setting: in the case of `Clc1ccc(-c2nc3c(OCC4CC4)nc(Oc4ccccc4)nc3o2)cc1Cl` [Example 110, 7-cyclopropylmethoxy-2-(3,4-dichloro-phenyl)-5-phenoxy-oxazolo[5,4-d]pyrimidine] it was 80%; in that of `CCCOc1nc(Oc2ccc(C)cc2F)nc2oc(-c3cccc(C)c3)nc12` [Example 111, 5-(2-fluoro-4-methyl-phenoxy)-7-propoxy-2-(3-methyl-phenyl)-oxazolo[5,4-d]pyrimidine], 88%.
With `CCCOc1nc(Oc2ccc(SC(F)(F)F)cc2)nc2oc(-c3cccc(C)c3)nc12` [Example 112, 7-propoxy-2-(3-methyl-phenyl)-5-(4-trifluoromethylsulfanyl-phenoxy)-oxazolo[5,4-d]pyrimidine], the activation at 10 µM came out at 46%.
With `CCCOc1nc(NC2CCC(C)CC2)nc2oc(-c3cc(F)ccc3Cl)nc12` (stereo not shown) [Example 113, [2-(2-chloro-5-fluoro-phenyl)-7-propoxy-oxazolo[5,4-d]pyrimidin-5-yl]-(4-methyl-cyclohexyl)-amine], the activation at 10 µM was determined as 52%.
As to `CCCOc1nc(Oc2cc(Cl)ccc2C)nc2oc(-c3cccc(C)c3)nc12` [Example 115, 5-(5-chloro-2-methyl-phenoxy)-7-propoxy-2-(3-methyl-phenyl)-oxazolo[5,4-d]pyrimidine], the activation at 10 µM came out at 96%.
Same read-out and setting: in the case of `CCCOc1nc(Oc2cccc(SC(F)(F)F)c2)nc2oc(-c3cccc(C)c3)nc12` [Example 116, 7-propoxy-2-(3-methyl-phenyl)-5-(3-trifluoromethylsulfanyl-phenoxy)-oxazolo[5,4-d]pyrimidine] it was 70%.
Still for that read-out and setting: under `CCCOc1nc(OC2CCOCC2)nc2oc(-c3cc(F)ccc3Cl)nc12` [Example 117, 2-(2-chloro-5-fluoro-phenyl)-7-propoxy-5-(tetrahydro-pyran-4-yloxy)-oxazolo[5,4-d]pyrimidine] stands 63%; under `CCCOc1nc(Oc2cccc(OC)c2)nc2oc(-c3cccc(C)c3)nc12` [Example 118, 5-(3-methoxy-phenoxy)-7-propoxy-2-(3-methyl-phenyl)-oxazolo[5,4-d]pyrimidine], 98%.
On the same count and under the same terms, under `CCCOc1nc(Oc2ccc(Cl)cc2Cl)nc2oc(-c3cccc(C)c3)nc12` [Example 119, 5-(2,4-dichloro-phenoxy)-7-propoxy-2-(3-methyl-phenyl)-oxazolo[5,4-d]pyrimidine] stands 116%.
Take `CCCOc1nc(Oc2cc(Cl)ccc2Cl)nc2oc(-c3cccc(C)c3)nc12` [Example 120, 5-(2,5-dichloro-phenoxy)-7-propoxy-2-(3-methyl-phenyl)-oxazolo[5,4-d]pyrimidine]: the activation at 10 µM worked out at 86%.
For the compound `CCCOc1nc(Oc2cccc(Cl)c2)nc2oc(-c3cccc(C)c3)nc12` [Example 121, 5-(3-chloro-phenoxy)-7-propoxy-2-(3-methyl-phenyl)-oxazolo[5,4-d]pyrimidine], the activation at 10 µM was determined as 113%.
